Results as given in patent publication US20120083476A1, “HETEROARYL-SUBSTITUTED SPIROCYCLIC DIAMINE UREA MODULATORS OF FATTY ACID AMIDE HYDROLASE” (Janssen Pharmaceutica NV, priority 2009, published 2012).
Structures can show the parent of a compound that is named as a salt.

Tests used:
[1] = target: T1, Rat FAAH (Rattus norvegicus, UniProt P97612); experiment: Assay Method 2: rat FAAH assay (3H-anandamide hydrolysis in cell homogenate); type: biochemical; conditions: read-out: Assay 2 IC50
T1 construct: expressed in transfected cells; host or cells: SK-N-MC cells stably transfected with rat FAAH cDNA (G418 selection)
T1 sequence (P97612 1-579): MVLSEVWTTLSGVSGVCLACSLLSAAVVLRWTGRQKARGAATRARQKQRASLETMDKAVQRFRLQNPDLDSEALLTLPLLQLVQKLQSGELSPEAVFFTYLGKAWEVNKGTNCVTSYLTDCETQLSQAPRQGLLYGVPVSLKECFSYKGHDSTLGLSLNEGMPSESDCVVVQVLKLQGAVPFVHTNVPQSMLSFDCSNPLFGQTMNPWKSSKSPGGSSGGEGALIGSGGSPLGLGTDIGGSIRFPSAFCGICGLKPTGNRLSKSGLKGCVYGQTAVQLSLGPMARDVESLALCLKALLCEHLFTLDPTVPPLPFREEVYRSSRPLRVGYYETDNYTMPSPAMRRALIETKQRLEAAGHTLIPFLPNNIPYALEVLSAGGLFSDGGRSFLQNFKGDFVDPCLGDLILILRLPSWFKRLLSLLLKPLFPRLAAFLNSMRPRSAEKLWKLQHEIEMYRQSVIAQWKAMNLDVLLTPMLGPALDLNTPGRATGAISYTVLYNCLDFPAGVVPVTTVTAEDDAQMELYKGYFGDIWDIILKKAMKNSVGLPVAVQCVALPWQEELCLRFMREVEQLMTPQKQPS
Protocol: A. Transfection of Cells with Rat FAAH A 10-cm tissue culture dish with a confluent monolayer of SK-N-MC cells was split 2 days (d) prior to transfection. Using sterile technique, the media was removed and the cells were detached from the dish by the addition of trypsin. One fifth of the cells were then placed onto a new 10-cm dish. Cells were grown in a 37° C. incubator with 5% CO2 in Minimal Essential Media Eagle with 10% Fetal Bovine Serum. After 2 d, cells were approximately 80% confluent. These cells were removed from the dish with trypsin and pelleted in a clinical centrifuge. The pellet was re-suspended in 400 μL complete media and transferred to an electroporation cuvette with a 0.4 cm gap between the electrodes. Supercoiled rat FAAH cDNA (1 μg) was added to the cells and mixed. The voltage for the electroporation was set at 0.25 kV, and the capacitance was set at 960 μF. After electroporation, the cells were diluted into complete media (10 mL) and plated onto four 10-cm dishes. Because of the variability in the efficiency of electroporation, four different concentrations of cells were plated. The ratios used were 1:20, 1:10, and 1:5, with the remainder of the cells being added to the fourth dish. The cells were allowed to recover for 24 h before adding the selection media (complete media with 600 μg/mL G418). After 10 d, dishes were analyzed for surviving colonies of cells. Dishes with well-isolated colonies were used. Cells from individual colonies were isolated and tested. […] B. FAAH Assay T84 frozen cell pellets or transfected SK-N-MC cells (contents of 1×15 cm culture dishes) were homogenized in 50 mL of FAAH assay buffer (125 mM Tris, 1 mM EDTA, 0.2% Glycerol, 0.02% Triton X-100, 0.4 mM Hepes, pH 9). […] The reaction mixture was incubated at rt for 1 h. During the incubation, 96-well Multiscreen filter plates (catalog number MAFCNOB50; Millipore, Bedford, Mass., USA) were loaded with 25 of activated charcoal (Multiscreen column loader, catalog number MACL09625, Millipore) and washed once with 100 μL of MeOH. Also during the incubation, 96-well DYNEX MicroLite plates (catalog number NL510410) were loaded with 100 μL of MicroScint40 (catalog number 6013641, Packard Bioscience, Meriden, Conn., USA). After the 1 h incubation, 60 μL of the reaction mixture were transferred to the charcoal plates, which were then assembled on top of the DYNEX plates using Centrifuge Alignment Frames (catalog number MACF09604, Millipore). The unbound labeled ethanolamine was centrifuged through to the bottom plate (5 min at 2000 rpm), which was preloaded with the scintillant, as described above. The plates were sealed and left at rt for 1 h before counting on a Hewlett Packard TopCount. Results for compounds tested in these assays are summarized in Table 1, as an average of results obtained. Compounds were tested in free base or trifluoroacetic acid salt forms. Where activity is shown as greater than (>) a particular value, the value is the solubility limit of the compound in the assay medium or the highest concentration tested in the assay.

[2] = target: T2, FAAH (Homo sapiens, UniProt O00519); experiment: Assay Method 1: human FAAH assay (3H-anandamide hydrolysis in cell homogenate); type: biochemical; design: expressed in transfected cells; host or cells: SK-N-MC cells stably transfected with human FAAH cDNA (G418 selection); alternatively T84 cell pellets; conditions: read-out: Assay 1 IC50
T2 sequence (O00519 1-579): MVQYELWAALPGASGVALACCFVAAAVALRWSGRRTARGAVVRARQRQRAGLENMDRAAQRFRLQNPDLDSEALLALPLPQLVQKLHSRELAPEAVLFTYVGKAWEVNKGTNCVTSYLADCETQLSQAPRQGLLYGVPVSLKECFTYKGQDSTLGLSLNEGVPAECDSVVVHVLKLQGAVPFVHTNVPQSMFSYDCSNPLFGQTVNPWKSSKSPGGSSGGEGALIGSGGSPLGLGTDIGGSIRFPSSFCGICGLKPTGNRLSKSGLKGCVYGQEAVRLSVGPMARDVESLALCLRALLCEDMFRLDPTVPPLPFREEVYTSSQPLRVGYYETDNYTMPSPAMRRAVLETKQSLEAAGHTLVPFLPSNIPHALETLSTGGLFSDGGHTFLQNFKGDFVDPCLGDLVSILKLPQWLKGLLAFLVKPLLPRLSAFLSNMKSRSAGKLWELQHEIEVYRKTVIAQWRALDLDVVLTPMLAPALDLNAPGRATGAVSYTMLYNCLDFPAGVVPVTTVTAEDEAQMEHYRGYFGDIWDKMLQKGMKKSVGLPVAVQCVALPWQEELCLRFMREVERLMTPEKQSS
Protocol: A. Transfection of Cells with Human FAAH
A 10-cm tissue culture dish with a confluent monolayer of SK-N-MC cells was split 2 days (d) prior to transfection. Using sterile technique, the media was removed and the cells were detached from the dish by the addition of trypsin. One fifth of the cells were then placed onto a new 10-cm dish. Cells were grown in a 37° C. incubator with 5% CO2 in Minimal Essential Media Eagle with 10% Fetal Bovine Serum. After 2 d, cells were approximately 80% confluent. These cells were removed from the dish with trypsin and pelleted in a clinical centrifuge. The pellet was re-suspended in 400 μL complete media and transferred to an electroporation cuvette with a 0.4 cm gap between the electrodes. Supercoiled human FAAH cDNA (1 μg) was added to the cells and mixed. The voltage for the electroporation was set at 0.25 kV, and the capacitance was set at 960 μF. After electroporation, the cells were diluted into complete media (10 mL) and plated onto four 10-cm dishes. Because of the variability in the efficiency of electroporation, four different concentrations of cells were plated. […] The cells were allowed to recover for 24 h before adding the selection media (complete media with 600 μg/mL G418). After 10 d, dishes were analyzed for surviving colonies of cells. Dishes with well-isolated colonies were used. Cells from individual colonies were isolated and tested.
T84 frozen cell pellets or transfected SK-N-MC cells (contents of 1×15 cm culture dishes) were homogenized in 50 mL of FAAH assay buffer (125 mM Tris, 1 mM EDTA, 0.2% Glycerol, 0.02% Triton X-100, 0.4 mM Hepes, pH 9). The assay mixture consisted of 50 μL of the cell homogenate, 10 μL of the test compound, and 40 μL of anandamide [1-^3H-ethanolamine] (^3H-AEA, Perkin-Elmer, 10.3 Ci/mmol), which was added last, for a final tracer concentration of 80 nM. The reaction mixture was incubated at rt for 1 h. During the incubation, 96-well Multiscreen filter plates (catalog number MAFCNOB50; Millipore, Bedford, Mass., USA) were loaded with 25 of activated charcoal (Multiscreen column loader, catalog number MACL09625, Millipore) and washed once with 100 μL of MeOH. Also during the incubation, 96-well DYNEX MicroLite plates (catalog number NL510410) were loaded with 100 μL of MicroScint40 (catalog number 6013641, Packard Bioscience, Meriden, Conn., USA). After the 1 h incubation, 60 μL of the reaction mixture were transferred to the charcoal plates, which were then assembled on top of the DYNEX plates using Centrifuge Alignment Frames (catalog number MACF09604, Millipore). The unbound labeled ethanolamine was centrifuged through to the bottom plate (5 min at 2000 rpm), which was preloaded with the scintillant, as described above. The plates were sealed and left at rt for 1 h before counting on a Hewlett Packard TopCount.
Compounds were tested in free base or trifluoroacetic acid salt forms.

`O=C(Nc1ccc(-n2nccn2)nc1)N1CCC2(CCN(Cc3cccc(Oc4ccc(Cl)cc4)c3)CC2)CC1` [Example 14, 9-[3-(4-Chloro-phenoxy)-benzyl]-3,9-diaza-spiro[5.5]undecane-3-carboxylic acid (6-[1,2,3]triazol-2-yl-pyridin-3-yl)-amide] was tested, and the IC50 [1] was 50 nM and the IC50 [2] was 30 nM.
With `O=C(Nc1ccc(-n2nccn2)nc1)N1CC2(CCN(Cc3cccc(Oc4ccc(Cl)cc4)c3)CC2)C1` [Example 39, 7-[3-(4-Chloro-phenoxy)-benzyl]-2,7-diaza-spiro[3.5]nonane-2-carboxylic acid (6-[1,2,3]triazol-2-yl-pyridin-3-yl)-amide] the IC50 [1] was 20 nM and the IC50 [2] was 20 nM.
`O=C(Nc1cccnc1)N1CC2(CCN(Cc3cccc(Oc4cccc(Br)c4)c3)CC2)C1` [Example 122, 7-[3-(3-Bromo-phenoxy)-benzyl]-2,7-diaza-spiro[3.5]nonane-2-carboxylic acid pyridin-3-ylamide] gave an IC50 [1] of 1000 nM and an IC50 [2] of 50 nM.
For `Cc1nc2ccc(NC(=O)N3CC4(CCN(Cc5cccc(Oc6ccc(Cl)cc6)c5)CC4)C3)cc2s1` [Example 77, 7-(3-(4-chlorophenoxy)benzyl)-N-(2-methylbenzo[d]thiazol-6-yl)-2,7-diazaspiro[3.5]nonane-2-carboxamide, trifluoroacetic acid salt], the IC50 [1] was over 10000 nM and the IC50 [2] was over 10000 nM.
Work on `O=C(Nc1cccnc1)N1CC2(CCN(Cc3cccc(Oc4ccc(C(F)(F)F)cc4)c3)CC2)C1` [Example 126, 7-[3-(4-Trifluoromethyl-phenoxy)-benzyl]-2,7-diaza-spiro[3.5]nonane-2-carboxylic acid pyridin-3-ylamide] yielded an IC50 [1] of 1000 nM and an IC50 [2] of 160 nM.
For `Cc1cncc(NC(=O)N2CC3(CCN(Cc4cccc(Oc5ccc(Cl)cc5)c4)CC3)C2)c1` [Example 79, 7-(3-(4-chlorophenoxy)benzyl)-N-(5-methylpyridin-3-yl)-2,7-diazaspiro[3.5]nonane-2-carboxamide, trifluoroacetic acid salt], the IC50 [1] was 30 nM and the IC50 [2] was 70 nM.
In the case of `O=C(Nc1noc2ccccc12)N1CCC2(CCN(Cc3cccc(Oc4ccc(Cl)cc4)c3)CC2)C1` [Example 92, 8-[3-(4-Chloro-phenoxy)-benzyl]-2,8-diaza-spiro[4.5]decane-2-carboxylic acid benzo[d]isoxazol-3-ylamide, trifluoroacetic acid salt], the IC50 [1] is reported as 20 nM and the IC50 [2] is reported as 160 nM.
Compound `O=C(Nc1cccnc1)N1CC2(CCN(Cc3cccc(Oc4cccc(Cl)c4)c3)CC2)C1` [Example 112, 7-(3-(3-chlorophenoxy)benzyl)-N-(pyridin-3-yl)-2,7-diazaspiro[3.5]nonane-2-carboxamide] has an IC50 [1] of 840 nM and an IC50 [2] of 60 nM.
`COc1cc(NC(=O)N2CC3(CCN(Cc4cccc(Oc5ccc(Cl)cc5)c4)CC3)C2)ncn1` [Example 59, 7-[3-(4-Chloro-phenoxy)-benzyl]-2,7-diaza-spiro[3.5]nonane-2-carboxylic acid (6-methoxy-pyrimidin-4-yl)-amide, trifluoroacetic acid salt] gave an IC50 [1] of 80 nM and an IC50 [2] of 250 nM.
For `O=C(Nc1cccnc1)N1CC2(CCN(Cc3cccc(Oc4ccccc4Cl)c3)CC2)C1` [Example 121, 7-[3-(2-Chloro-phenoxy)-benzyl]-2,7-diaza-spiro[3.5]nonane-2-carboxylic acid pyridin-3-ylamide], the IC50 [1] was 1200 nM and the IC50 [2] was 30 nM.
Work on `O=C(Nc1cccnc1)N1CC2(CCN(Cc3cccc(Oc4ccc(OC(F)(F)F)cc4)c3)CC2)C1` [Example 125, 7-[3-(4-Trifluoromethoxy-phenoxy)-benzyl]-2,7-diaza-spiro[3.5]nonane-2-carboxylic acid pyridin-3-ylamide] yielded an IC50 [1] of 3000 nM and an IC50 [2] of 2600 nM.
Work on `O=C(Nc1cccnc1)N1CC2(CCN(Cc3cccc(Oc4ccc(F)c(C(F)(F)F)c4)c3)CC2)C1` [Example 113, 7-(3-(4-fluoro-3-(trifluoromethyl)phenoxy)benzyl)-N-(pyridin-3-yl)-2,7-diazaspiro[3.5]nonane-2-carboxamide] yielded an IC50 [1] of 5000 nM and an IC50 [2] of 560 nM.
